Source: the METLIN SMRT retention time set (Domingo-Almenara et al. 2019)

Assay: gradient 5% acetonitrile 3 min, to 50% in 2 min, to 85% in 15 min, held 3 min, 100 µL/min
Conditions: column: Zorbax Extend-C18 2.1 x 50 mm; eluents: water / acetonitrile, 0.1% formic acid
Outline: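 Each retention time is based on an adduct peak selected computationally and verified by manual inspection. Measurements used HPLC–quadrupole time-of-flight mass spectrometry in positive and negative ionization mode on mixtures of ~100 pure standards. Chromatography ran on a Zorbax Extend-C18 column (2.1 × 50 mm, 1.8 μm) at 100 μL/min with water and acetonitrile, each containing 0.1% formic acid, and dead and dwell volumes of 40 μL and 900 μL.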

Compound	RP-LC retention time
CCCCn1c(=O)c2ccccc2n(Cc2nc(-c3ccc(C(F)(F)F)cc3)no2)c1=O	1260 s
Cc1nc(-c2csc(S(=O)(=O)N3CCC(C(=O)Nc4cccc(Cl)c4)CC3)c2)no1	1000 s
Cc1cc(C)cc(C(=O)N2CC=C(C(=O)NC3CC3)CC2)c1	755 s
Cc1cc2c(cc3n2CC(C)(C(=O)NC2CCCCC2)N(Cc2cccnc2)C3=O)o1 (centres undefined)	658 s
CN(C(=O)Cn1cncc(C(=O)NC2CCCC2)c1=O)c1ccccc1	767 s
c1ccc(-c2noc(-c3cccnc3N3CCN(c4ccccc4)CC3)n2)cc1	1280 s
Cc1nc(-c2noc(-c3ccccc3)n2)cn1CC(=O)Nc1cccc(Cl)c1	916 s
COc1ccc(C(O)CN2CCN(c3ccccc3C)CC2)cc1OC (centres undefined)	654 s
Cc1oc2nc3c(c(NC(=O)CN4CCCC4=O)c2c1C)CCCC3	687 s
CCOC(=O)c1c(S(=O)(=O)N2CCC(C(=O)NCc3cccs3)CC2)c(C)n(C)c1C	774 s
COc1ccc2c(c1)C1(CCN(C(=O)c3ccc(C#N)cc3)C1)C(=O)N2 (centres undefined)	762 s
O=C(NC1CC1)c1ccccc1OCC1CCCN(Cc2cc3ccccc3nc2Cl)C1 (centres undefined)	650 s
CCC(=O)Nc1ccc2c(c1)Sc1ncccc1C(=O)N2C	630 s
COc1cccc(CN2N=C(C(=O)N3CCOCC3)S(=O)(=O)c3ccc(Cl)cc32)c1	887 s
Fc1ccc(OCc2nnc3sc(CCCc4ccccc4)nn23)cc1	1030 s
CCOc1ccc(CNC(=O)C2CCN(S(=O)(=O)N(CC(C)C)CC(C)C)CC2)cc1OC	1040 s
COc1ccc(CN2C[C@@H]3C(=O)N(CCCN4CCCC4=O)C(=O)[C@@H]3C2)c(OC)c1	598 s
O=C(Nc1ccc(Cl)cc1F)C1Oc2ccccc2NC1=O (centres undefined)	824 s
CCc1ccc(NC(=O)c2ccc(=O)n(CCN3CCCC3)c2)cc1	650 s
O=C(Cn1nc2c3cc(-c4ccccc4)nn3ccn2c1=O)NCc1ccco1	792 s
Cc1ccccc1-c1nc(-c2ccc(S(=O)(=O)N3CCCC3)cc2)no1	1240 s
Cc1ccc(-c2ccc(=O)n(CCCC(=O)N3CCc4ccccc43)n2)cc1	880 s
COc1ccccc1-c1noc(C2CCCN2C(=O)Nc2cccc(C)c2C)n1 (centres undefined)	858 s

Compound	RP-LC retention time
CN1CCCc2cc(C(CNC(=O)C(=O)NCc3ccc4c(c3)OCO4)N3CCCCC3)ccc21 (centres undefined)	734 s
O=C(CNC(=O)c1ccncc1)Nc1nc2ccccc2[nH]1	554 s
CC(NC(=O)c1ccc(Oc2nccnc2N2CCSCC2)cc1)c1ccc(F)cc1 (centres undefined)	965 s
CCOC(=O)c1noc2ncnc(NC3CCCc4ccccc43)c12 (centres undefined)	1120 s
O=C(Nc1ccc(Cl)cc1F)NC1CCN(c2cc(N3CCOCC3)cnn2)C1 (centres undefined)	649 s
COc1cccc(Oc2nccnc2N2CCC(C(=O)NCCC(C)C)CC2)c1	861 s
Cc1ccc(NC(=O)N2CCN(CCn3cnc4cccnc43)CC2)c(Cl)c1	584 s
CCOc1ccc(-c2cc3c(=O)n(Cc4nc(-c5ccccc5C)no4)ccn3n2)cc1	1170 s
COC(=O)c1ccccc1NC(=O)CSc1cc(C)nc(-c2cccnc2)n1	734 s
CCCCCn1c(=O)c2c(nc3n2CCN3c2ccc(OC)cc2)n(C)c1=O	1010 s
COc1cc2c(cc1OC)C(C(=O)N(C)c1ccc(Cl)cc1)C(c1cccnc1)N(C)C2=O (centres undefined)	674 s
CN1C(=O)C2(CCN(C(=O)c3ccnn3C)CC2)c2ccccc21	699 s
CCc1nc2cc(-c3noc(-c4ccc(F)c(F)c4)n3)ccc2o1	1200 s
Cc1ccc(CNC(=O)C2(C)CCN(S(=O)(=O)c3ccc(C)cc3C)CC2)cc1	1040 s
O=c1ccc(-c2ccc(Cl)cc2)nn1CCc1nc(-c2ccc3c(c2)OCO3)no1	1040 s
COc1cc(OC)c(OC)cc1CN(C)CCc1ccccn1	593 s
CCn1cc(S(=O)(=O)CC(=O)Nc2ccc3c(c2)OCO3)c2ccccc21	754 s
O=C(NCC(=O)N1CCCc2ccccc21)c1cccc(Br)c1	822 s
COc1ccccc1-c1nc(C2CCN(C(=O)C3COc4ccccc4O3)CC2)no1 (centres undefined)	962 s
O=C(Cc1ccsc1)Nc1ccc(N2CCN(c3ccccc3)C2=O)nc1	811 s
CCC(C)NC(=O)N1CC(Oc2ccc(-c3noc(COC)n3)cc2)C1 (centres undefined)	794 s
O=S(=O)(NCc1ccco1)c1cccc(-c2nc(-c3ccccc3)no2)c1	1050 s
CCNC(=O)C1CCCN(c2nc3ncn(CC(=O)NCc4ccc5c(c4)OCO5)c(=O)c3s2)C1 (centres undefined)	640 s

Compound	RP-LC retention time
O=C(Nc1cnc(-c2ccc(Cl)cc2)nc1)c1ccc(Br)o1	1120 s
CNC(=O)c1n[nH]c2c1CC(C(C)(C)C)CC2 (centres undefined)	786 s
O=C(NC1CC1)[C@@H]1C[C@H](Oc2ccccc2)CN1C(=O)c1ccoc1	709 s
CCc1nc(-c2csc(S(=O)(=O)N3CCCC(C(=O)Nc4c(C)cccc4CC)C3)c2)no1 (centres undefined)	1080 s
CC(=O)N1CCC2(CC1)OC(=O)C(C)=C2C(=O)NCCC1=CCCCC1	738 s
Cc1ccc2cc(CCC(=O)NC(C)c3cn(C)nc3C)c(=O)[nH]c2c1 (centres undefined)	618 s
CCCNC(=O)C1CCCN(c2nc3ncn(CC(=O)Nc4ccc(CC)cc4)c(=O)c3s2)C1 (centres undefined)	741 s
O=C(C1CCC1)N1CCc2sc(S(=O)(=O)NCc3ccc(F)cc3)cc2C1	877 s
CCOc1ccc(-c2noc(CN3C(=O)COc4ccc(S(=O)(=O)CC)cc43)n2)cc1OC	873 s
COC(=O)c1ccc(Cn2cnc3c(-c4cccc(F)c4)csc3c2=O)o1	957 s
COc1ccccc1NC(=O)N1CCC2(CC1)NC(=O)c1ccc(Cl)cc1N2	775 s
Cn1c(N2CCC(C(=O)NCCCN3CCC(Cc4ccccc4)CC3)CC2)cc(=O)n(C)c1=O	631 s
CCOc1ccc(CC(=O)Nc2ccc3c(c2)Sc2ncccc2C(=O)N3C)cc1	931 s
CCC(C)NC(=O)C1CCN(S(=O)(=O)c2cn(C(C)C)cn2)CC1 (centres undefined)	669 s
O=C(NCC1CCCO1)C1CCN(S(=O)(=O)c2ccc(-c3noc(C4CC4)n3)cc2)CC1 (centres undefined)	789 s
Cc1cc(C)cc(NC(=O)Nc2nccn(-c3cc(C)cc(C)c3)c2=O)c1	1220 s
COCCN1CCn2cc(S(=O)(=O)Nc3ccc(C)c(C)c3)cc2C1=O	745 s
Cc1cc(C)n(C(C)CC(=O)N2CCN(S(=O)(=O)c3ccc(Cl)cc3)CC2)n1 (centres undefined)	750 s
O=c1c2sccc2n(Cc2nc(-c3cccc(Br)c3)no2)c(=O)n1-c1ccc(F)cc1	1080 s
CCCn1nc(-c2nc(-c3cccc(Cl)c3)no2)ccc1=O	1150 s
Fc1ccc(Nc2ncnc3nc[nH]c23)cc1	582 s
Cc1cccc(C)c1NC(=O)Cn1nc2cc(-c3ccccc3)nc(C)n2c1=O	832 s
CCCCCOc1ccc(C(=O)CCNC(Cc2c[nH]c3ccccc23)C(=O)O)cc1 (centres undefined)	787 s

Compound	RP-LC retention time
Cc1cc2c(=O)n(CC(=O)Nc3ccc(F)cc3C)ccc2s1	762 s
COc1ccccc1CCC(=O)N1CCCn2nc(-c3cccs3)cc2C1	702 s
CC1(C(=O)N2CCN(Cc3ccc4c(c3)OCO4)CC2)CCCCC(=O)N1 (centres undefined)	576 s
COc1ccc2[nH]c(=O)c(CCC(=O)NCC(C)C)cc2c1	660 s
N#Cc1ccc(C(=O)NCC(=O)N2CCCc3ccccc32)c(F)c1	843 s
COc1ccccc1NC(=O)N1CCC2(C1)C(=O)N(C)c1ccccc12 (centres undefined)	818 s
CC(C)n1c(-c2cccc(C(=O)NCCN3CCCCC3)c2)nc2cccnc21	599 s
Cc1[nH]nc(-c2c(C)sc(C)c2S(=O)(=O)NCCc2ccc(Cl)cc2)c1C	1130 s
O=C(c1ccc(F)cc1)N1CCN(S(=O)(=O)c2cc3c4c(c2)CCC(=O)N4CCC3)CC1	808 s
CCOC(=O)CC(=O)CSc1ccc2nnc(-c3cccs3)n2n1	671 s
COC1C(=O)N(C2CCN(C(=O)c3sc(C)nc3C)CC2)C12CCOCC2 (centres undefined)	589 s
Cc1nn(-c2ccccc2)c(C)c1N1CCN(S(=O)(=O)c2c(C)noc2C)CC1	952 s
Cc1nn(CC(=O)NCc2ccc(F)cc2)c(=O)c2nc(-c3ccccc3)sc12	872 s
CCOC(=O)c1oc2ccc(S(=O)(=O)N3CCC(c4ccncc4)CC3)cc2c1C	730 s
Cc1nc(-c2ccc(-c3noc(-c4ccnn4C)n3)cc2)cs1	1060 s
COCCCNC(=O)CCc1cn(-c2ccccc2)nc1-c1ccc2c(c1)OCO2	841 s
COC1C(=O)N(CC2CC2)C12CCN(C(=O)C(C)C)CC2 (centres undefined)	686 s
O=C(NC1CCNCC1)c1[nH]ncc1NC(=O)c1c(Cl)cccc1Cl	639 s
O=C(Nc1ccc2c(c1)OCO2)c1noc2c1CCCC2	883 s
CCOC(=O)Cn1cc(S(=O)(=O)N2CCCC2)ccc1=O	696 s
